Molecules are shown by their SMILES.

From patent publication US9458165B2, “DOT1L inhibitors” (Dana-Farber Cancer Institute, Inc., priority 2014, dated 2016) come the findings set out here.

Holding throughout (assay type): cell-based
Assay [1] concerns MV411. Briefly: Cellular activity in DOT1L related leukemia cell line (FIG. 10A). The note with it: compared to EPZ4777, FIG. 10A.
Assay [2] concerns HL60. The assay can be described thus: Cellular activity in HL60 cell line (FIG. 10B). The following applies: compared to EPZ4777, FIG. 10B.
Assay [3] has as its system MV4:11 cell line. Briefly: Anti-proliferation study. The following applies: compared to CC001, FIG. 7.
Assay [4] deals with the related gene. The assay can be described thus: Gene expression assay. The note with it: compared to CC001 and EPZ4777, FIG. 6.

On to `CC(C)N(C[C@H]1C[C@@H](n2cc(C#N)c3c(N)ncnc32)[C@H](O)[C@@H]1O)C1CC(CCc2nc3ccc(C(C)(C)C)cc3[nH]2)C1` (stereo partly drawn) [Example 1, 4-amino-7-((1R,2S,3R,4R)-4-(((3-(2-(6-(tert-butyl)-1H-benzo[d]imidazol-2-yl)ethyl)cyclobutyl)(isopropyl)amino)methyl)-2,3-dihydroxycyclopentyl)-7H-pyrrolo[2,3-d]pyrimidine-5-carbonitrile], for which the “cellular activity on DOT1L related leukemia” value in assay [1] was “more potent than EPZ4777”. Besides, in assay [2], the “cellular activity on HL60” value was “but not on HL60”. Further, the anti-proliferation activity result in assay [3] is reported as “greater than known DOT1L inhibitor CC001”. In addition, the “down regulation of the related gene” value in assay [4] is “down regulates the related gene more efficiently than known DOT1L inhibitor CC001 and very similar to EPZ4777”.
